Assay results from patent publication US6277583A, “Affinity labeling libraries and applications thereof” (Conjuchem, Inc., priority 1996, dated 2001).

Biological target: T1, HSA (Homo sapiens, UniProt P02768)
T1 construct: purchased Sigma A-8673
Test: Rates of reaction (kinetics of biotinylation) of library members with HSA
Format: binding
Protocol: The rates of reaction of four members of the library with HSA were determined, and the kinetics describing the biotinylation of HSA by these members of the library is shown in FIG. 2. The curves all show a characteristic early fast phase of reaction followed by a slowing of the reaction at later times. The maximal rate of reaction is determined by chosing the best straight line fit for the early values of the time course.
Members of the library differ in their structures from that of the thiophenyl ester of biotin in that a pentapeptide with a C- terminus amide is present and the ester function is spatially distinct because its position is on the amino acid side chain of glutamate.

T1 sequence (P02768 25-609): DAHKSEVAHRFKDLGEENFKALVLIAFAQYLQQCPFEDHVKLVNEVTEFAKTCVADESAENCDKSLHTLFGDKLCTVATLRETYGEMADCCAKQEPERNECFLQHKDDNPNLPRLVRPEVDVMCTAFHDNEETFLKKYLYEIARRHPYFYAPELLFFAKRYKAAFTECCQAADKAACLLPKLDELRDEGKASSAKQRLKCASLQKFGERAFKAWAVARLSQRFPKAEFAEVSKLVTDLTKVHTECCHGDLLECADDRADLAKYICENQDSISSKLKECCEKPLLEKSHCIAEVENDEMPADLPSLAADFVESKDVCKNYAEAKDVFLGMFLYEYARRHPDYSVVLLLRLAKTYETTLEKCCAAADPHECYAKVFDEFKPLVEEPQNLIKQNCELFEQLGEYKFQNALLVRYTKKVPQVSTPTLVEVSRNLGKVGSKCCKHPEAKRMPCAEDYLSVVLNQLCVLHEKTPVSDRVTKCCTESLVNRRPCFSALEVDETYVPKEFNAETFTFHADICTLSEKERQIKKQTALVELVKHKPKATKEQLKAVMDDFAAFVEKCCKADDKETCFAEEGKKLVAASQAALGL

O=C1NC2CSC(CCCCC(=O)Sc3ccccc3)C2N1 (centres unmarked) [Thiophenyl Biotin, thiophenyl ester of biotin]
Rate (maximal rate of biotinylation of HSA, best straight line fit of early time course (FIG. 2)): 0.0004-0.002 OD units/min | Fold Increase over 80 μM thiophenyl biotin (rate of reaction with HSA relative to thiophenyl ester of biotin): 1 fold
